Experimental data: patent US4033721A, “Analysis of gentian violet residue in tissue” (priority 1976, dated 1977)
Values joined by “and” are separate entries in the source; they are usually repeats but may differ in a detail not shown here. Identical values can stand only once. Like-named read-outs stand apart in the source and are kept apart here.

Legend:
[1] = Stability of gentian violet (light, acid, digestive tract pH); type: physicochemical
[2] = cited from earlier work
[3] = cited from earlier work; remark: listed apart in the source
Candida albicans = details: cited from earlier work
[4] = Spectrophotometric determination of gentian violet residue in livers of chickens fed gentian violet (Examples 2 to 24); type: in vivo
Method: This example involves the spectrophotometrical determination of the gentian violet content (as a residue) of poultry tissue.
An acid alcohol solution was prepared by adding 20 ml of concentrated hydrochloric acid to 2,000 ml of 95 percent ethyl alcohol (denatured).
A gentian violet stock solution was prepared as follows: Using the Ainsworth chainomatic analytical balance, 0.104 gm of crystalline gentian violet (USP) was accurately weighed out and quantitatively transferred to a 1000 ml volumetric flask and q.s. to 1000 ml with distilled water. A magnetic stirring bar was inserted into the flask and the gentian violet solution was mixed on a magnetic mixer for 1 hour. This solution contained 100 ug of gentian violet per ml (100 ppm).
Gentian violet-acid alcohol standard solutions were prepared as follows: Five standard dilutions of gentian violet in acid alcohol were prepared and the absorbence (O.D.) for each dilution was determined. The absorbence of the 5 dilutions were plotted on a graph to determine the linearity of the gentian violet curve.
The spectrophotometer was set at 590 mμ and zeroed using an acid alcohol blank. The absorbence of the 5 standard dilutions in the 13 mm cuvette was determined. The O.D. of the 1 ppm dilution in the 13 mm cuvette was recorded for use in calculation of the gentian violet recovery. (If method sensitivity below 0.1 ppm is desired, the O.D. of the 1 ppm standard in the 100 mm cell is recorded and the Beckman D.U. is used to make the determinations.)
A sodium hypochlorite quenching solution was prepared as follows: 0.26 gm. of sodium hypochlorite was weighed into a 250 ml Erlenmeyer flask and q.s. to 100 ml with distilled water. This solution was 0.26 percent NaOCL. If sodium hypochlorite is not available in the laboratory, this solution can be made from any standard household bleaching solution containing sodium hypochlorite (i.e., Clorox) at the 5.25 percent concentration. 1 ml 5.25 percent NaOCL q.s. to 20 ml with distilled water to give 20 ml of 0.26 percent NaOCL.
The tissue samples were prepared by grinding the tissues in a Waring-type blender to reduce the tissues to the smallest particle size possible. Using a Mettler P162-type balance, 5 gm samples of the finely ground tissues were weighed (in triplicate) into Erlenmeyer flasks.
Gentian violet was extracted from tissue samples as follows: 50 ml of acid-alcohol were added (using a graduated glass cylinder) to each of the samples in the flasks. A 3/4" magnetic stirring bar was inserted into each sample. The flasks were stoppered. The samples were placed on the magnetic mixers and mixed for 1 hour. After mixing, the samples were set in the dark to digest for 12 hours (overnight). After 12 hours of digestion the samples were again placed on the magnetic mixer and mixed for 1 hour. The contents of the sample flasks were poured into 60 ml glass centrifuge tubes and centrifuged at 2400 rpm for 10 minutes.
Chromatographic column clearing of the centrifuged samples was achieved as follows: Each column was equipped with a glass stop-cock, if the column was not so equipped. A small glass-wool pledget was inserted firmly in the bottom of the column to fill the bottom curve of the column. 5 to 6 grams of the Alumin AR sorbent was added to each column. The supernatant liquid was carefully decanted from the centrifuge tube into the chromatographic column. A 50 ml beaker was placed under each column. The stop-cock was opened and the first eluant from the column was collected until a minimum of 20 ml was collected. (This first eluant ordinarily was yellow in color but contained the extracted gentian violet.)
Spectrophotometric determination of the gentian violet concentration from the tissue sample was determined as follows: 5 ml of each of the eluants was pipetted into the 13 mm cuvettes. The spectrophotometer was set at 590 mu. The spectrophotometer was zeroed using an acid alcohol blank in the 13 mm cuvette. It was established that all cuvettes were matched. […]

[5] = water, chloroform and ethanol; cited from earlier work
[6] = Residual 14C-gentian violet in tissues of cockerels after repeated oral administration (Example 26)
normal coliform bacteria = details: intestinal tract; cited from earlier work
[7] = cited from earlier work; remark: listed apart in the source
[8] = cited from earlier work; remark: listed apart in the source
[9] = 4 hours after last administration

Compound: CN(C)c1ccc(C(=C2C=CC(=[N+](C)C)C=C2)c2ccc(N(C)C)cc2)cc1 [gentian violet, hexamethylpararosaniline chloride]
- acid stability ([1]; acid ethanol extract, pH lowered by evaporation): the acid would destroy the extracted gentian violet
- light stability ([1]; ultra violet rays of sunlight): extremely sensitive to decomposition
- toxic effects in poultry ([2]; in vivo): can kill the poultry or cause a decrease in the weight gain of the poultry
- toxicity of residue levels to the consuming animal or poultry ([2]; levels given in U.S. Pat. No. 3,916,027): not toxic or harmful
- absorption ([3]; digestive tract of animals and poultry): essentially non-absorbable
- residue in tissue of animals fed the compositions ([3]; in vivo): little or no residue
- effect on Candida albicans (Candida albicans): inhibits the growth of and destroys Candida albicans
- gentian violet residue with time after last intake of feed ([4]; chicken liver): lower with time
- p.p.m. of Gentian Violet in liver ([4]; chicken liver, feed 7 ppm for 56 days, 4 hours after final dose, 240 min): 0.28 p.p.m.
- p.p.m. of Gentian Violet in liver ([4]; chicken liver, feed 7 ppm for 56 days, 24 hours after final dose, 1440 min): 0.20 p.p.m.
- p.p.m. of Gentian Violet in liver ([4]; chicken liver, feed 7 ppm for 56 days, 48 hours after final dose, 2880 min): 0.08 p.p.m. and 0.16 p.p.m.
- p.p.m. of Gentian Violet in liver ([4]; chicken liver, feed 35 ppm for 56 days, 12 hours after final dose): 0.44 p.p.m.
- p.p.m. of Gentian Violet in liver ([4]; chicken liver, feed 35 ppm for 56 days, 24 hours after final dose, 1440 min): 0.80 p.p.m. and 0.60 p.p.m.
- concentration at 4 h ([4]; chicken, liver, po, feed 7 ppm for 56 days, 4 hours after final dose, read-out: p.p.m. of Gentian Violet in liver): 240 ng/g
- concentration at 12 h ([4]; chicken, liver, po, feed 7 ppm for 56 days, 12 hours after final dose, read-out: p.p.m. of Gentian Violet in liver): 120 ng/g
- concentration at 48 h ([4]; chicken, liver, po, feed 7 ppm for 56 days, 48 hours after final dose, read-out: p.p.m. of Gentian Violet in liver): 80 ng/g
- concentration at 12 h ([4]; chicken, liver, po, feed 35 ppm for 56 days, 12 hours after final dose, read-out: p.p.m. of Gentian Violet in liver): 440 ng/g
- concentration at 24 h ([4]; chicken, liver, po, feed 35 ppm for 56 days, 24 hours after final dose, read-out: p.p.m. of Gentian Violet in liver): 640 ng/g
- concentration at 48 h ([4]; chicken, liver, po, feed 35 ppm for 56 days, 48 hours after final dose, read-out: p.p.m. of Gentian Violet in liver): 360 ng/g
- solubility [5]: soluble in water, chloroform and ethanol
- radioactivity in 5X kidneys relative to 1X kidneys [6, 9]: 4.7 times
- radioactivity in 5X livers relative to 1X livers [6, 9]: 2.7 times
- concentration by the liver relative to the kidneys ([6]; in vivo): about twice as much
- disappearance from one organ versus the other ([6]; livers and kidneys): does not disappear more rapidly from one organ than the other
- mean half-life in the two organs at dose levels ([6]; livers and kidneys, 5X and 1X): 32.2 h
- effect on growth and activity of normal coliform bacteria (normal coliform bacteria): without materially reducing the growth of and activity of the normal coliform bacteria
- growth on mycotoxin-contaminated feed ([7]; feed containing gentian violet at the claimed levels): increased at a rate significantly faster
- growth promotion ([7]; feed contaminated with aflatoxin): works as a growth promoter
- sparing effect versus aflatoxin concentration ([7]; in vivo): appears to be a linear function of the concentration of the aflatoxin in the feed
- biodegradability ([8]; contaminant in water and residue in poultry manure, ultra-violet rays of sunlight): biodegradable
- stability in the digestive tract pH range ([8]; pH range of the digestive tract of animals and poultry): stable
